The values that follow come from patent US20050214738A1, “Conditional allele system” (priority 2003, published 2005).

The target of one series is GSK-3βFRB* (UniProt P26883+P42345, K2095P/T2098L/W2101F). The experiment in a line: Inducible stabilization of GSK-3βFRB* in knock-in MEFs (Western blot). Type of series: cell-based, mouse. More on the design: The minimal FRB domain comprises amino acids 2025-2114 of human mTor; endogenous in cells; host or cells: MEFs from GSK-3β^FRB* knock-in mice (fusion expressed from the targeted endogenous locus). As to the method:
MEFs cell lines were prepared from E14.5-E16.5 embryos of indicated genotypes by eviscerating the embryos in HBSS, treating the remaining tissue with 0.2% collagenase and trypsin, and plating the cells in DMEM containing 10% FCS, antibiotics, and 0.1 mM β-mercaptoethanol. Once established, the MEFs were cultured using standard techniques and treated with various small molecules as indicated.
Western Blot analysis was carried out using cell lysates prepared in RIPA buffer (10 mM Tris pH 7.2, 150 mM NaCl, 0.1% SDS, 1% Triton X-100, 1% deoxycholate, 5 mM EDTA, protease inhibitor cocktail (Invitrogen Life Technologies)) and then separated using standard SDS/PAGE before being transferred to PVDF (Millipore) using standard Western blotting procedures. The anti-GSK-3β antibody, used at 1:2500, the anti-HSP-90 antibody, 1:2500, and the anti-FKBP12 antibody, 1:2500, were purchased from BD Transduction Labs. The anti-β-catenin antibody, 1:2000, and anti-HSP-70 antibody, 1:1000 were purchased from Santa Cruz Biotechnology. […] In all cases, Western blots were incubated overnight with the appropriate primary antibodies in TBST (10 mM Tris 8.0, 150 mM NaCl, 0.1% Tween-20) containing 10% dry milk, and then washed 3 times with TBST. The blots were subsequently incubated for 30 minutes with HRP-conjugated secondary antibodies from Jackson Immunoresearch, washed 3 more times with TBST, and then developed using standard ECL reagents (Amersham Biosciences) and Kodak XAR film.
(In general: A western blot detects proteins with antibodies after separation by electrophoresis.)

The next series deals with T1, KLF (Homo sapiens, UniProt P42345+P62942, T2098L/W2101F).
T1 construct: The minimal FRB domain comprises amino acids 2025-2114 of human mTor; expressed in transfected cells; host or cells: COS1 cells
The experiment in a line: SeAP transcriptional switch assay, FRB mutant KLF. Type of series: cell-based. The settings on record: double mutant. How it is done: Drug efficacy was determined in a three-plasmid transcriptional switch reporter assay. ˜106 COS1 cells were coelectroporated with 2 μg of the DNA binding construct pBJ5-Gal4-FKBP(3), 2 μg pBJ5-VP16 (or the relevant mutant FRB) and 2 μg of the Gal4-SeAP reporter. Electroporation details are available upon request. Cells were immediately aliquoted to 2 or 3×96 well plates with flat bottoms. After 24 hours incubation media was supplemented with a rapalog in triplicate and in serial two fold dilutions. Following 24 hours further incubation, cells with media were wrapped carefully in plastic wrap and heated to 65° C. for two hours to inactivate endogenous phosphatases. 50 μL of media was transferred to a black 96 well plate (Costar 3915) and supplemented with 1 mM methylumbelliferrylphosphate (Sigma, St. Louis, Mo.) in 1M diethanolamine (pH 10.0 with carbonate). After 16 hours incubation at 37° C. SeAP activity was measured by fluorescence with a Spectamax M2 fluorometer (Molecular Devices, Sunnyvale, Calif.) with transmission set at 355 nm and emmission set at 460 nm. Data was analysed with Softmax Pro (Molecular Devices), Microsoft Excel and Prism 3 (GraphPad Software).

The target of a further series is T2, FRB*Pax6 (UniProt P26883+P42345, K2095P/T2098L/W2101F).
T2 construct: The minimal FRB domain comprises amino acids 2025-2114 of human mTor; from tissue; host or cells: e13.5 cortical neural cultures (A14) and cultured whole embryos (A15) from Pax6^FRB* knock-in mice; fusion expressed from the targeted endogenous locus
The experiment in a line: Whole embryo culture, inducible stabilization of FRB*Pax6. More on the design: species or system mouse. How it is done: Uterine horns were removed from sacrificed mothers to a petri dish containing Hank's Balanced Salt Solution (HBSS), fat was removed and the uterus cut up to isolate embryos. Individual deciduum were carefully removed from the uterus by carefully pulling apart the muscular layers in a fresh petri dish containing HBSS (sometimes supplemented with 2 mg/mL glucose) under a dissecting microscope. Embryos were removed by cutting along the lateral axis of the deciduum with fine forceps taking care not to puncture the embryonic membranes and teasing off the decidual layers overlying the embryo. Embryos were then separated from the remaining decidua at the ectoplacental cone or primitive placenta (depending on the age of the embryo).
Reichert's membrane was grasped without the underlying visceral yolk sac, carefully torn away from the embryo and trimmed back to the placenta without ripping the yolk sac. […] The bottle rotated slowly in a roller bottle chamber at 37° C. Drugs were added directly to the culture media at the commencement of the culture.
Embryos were fixed overnight in 4% paraformaldehyde/PBS then dehydrated through a staged ethanol series. Endogenous peroxidases were inactivated with 5% H2O2 for 4 hours in ethanol and the embryos were rehydrated. […] Embryos were washed in block 6 hours with 1 hour changes and incubated overnight at 4° C. with […] anti-mouse secondary. Embryos were washed with PBS+0.1% Triton X-100 4 times for 1 hour and developed with the DAB peroxidase kit from Vector laboratories.
Embryos were protected with a staged series to 30% sucrose in PBS after fixation in 4% PFA (60 minutes to overnight at 4° C.). Protected embryos were embedded in OCT (VWR) frozen and sectioned on a Leica cryostat to 10 μm. Thin sections were stained according to standard protocols (obtained upon request). Secondary antibodies were purchased from Molecular Probes (Eugene, Oreg.) and primary antibodies to neurofilament, Lim3, Nkx2.2, Pax6, En1, Isl1 were obtained from Dev. Studies. Additional antibodies were from Covance, Zymed or a generous gift of Tadashi Nomura and Noriko Osumi (Sendai, Japan). Immunofluorescence was visualized by confocal microscopy.

Chain of GSK-3βFRB* (P42345 2025-2114 K2095P/T2098L/W2101F): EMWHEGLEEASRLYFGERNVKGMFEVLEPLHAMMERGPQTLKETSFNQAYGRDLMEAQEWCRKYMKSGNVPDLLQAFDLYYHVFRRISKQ
Chain of GSK-3βFRB* (P26883 2-108): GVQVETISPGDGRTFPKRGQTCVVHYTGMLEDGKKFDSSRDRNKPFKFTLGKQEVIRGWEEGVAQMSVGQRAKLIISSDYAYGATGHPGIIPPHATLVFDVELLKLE
T2 sequence (P42345 2025-2114 K2095P/T2098L/W2101F): as the sequence (P42345 2025-2114 K2095P/T2098L/W2101F) above
T2 sequence (P26883 2-108): as the sequence (P26883 2-108) above
T1 sequence (P42345 2025-2114 T2098L/W2101F): as the sequence (P42345 2025-2114 K2095P/T2098L/W2101F) above, with P71K counted along it
T1 sequence (P62942 whole entry, the tested form may be a part): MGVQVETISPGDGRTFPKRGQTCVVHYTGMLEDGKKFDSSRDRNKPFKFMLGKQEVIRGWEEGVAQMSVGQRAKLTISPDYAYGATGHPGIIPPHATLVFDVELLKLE

Broadly, the EC50 is the concentration needed to bring the measured effect to its halfway point. The low end stands for higher potency in that assay, the high end for lower potency in that assay. Regarding “C20-(R or S)-methallylrapamycin [C20-MaRap]”, the “GSK-3βFRB* levels” value at GSK-3βFRB* (GSK-3βFRB*/FRB* MEFs, 36 hour treatment, 100 nM) was “restored GSK-3βFRB* levels”. On GSK-3βFRB* (MEFs), the “effect on wild-type GSK-3β, β-catenin, or HSP-90 expression” value was “neither drug had an effect”. Further, the “stabilization in fibroblasts lacking detectable FKBP12 expression” value at GSK-3βFRB* (doubly homozygous GSK-3βFRB* and FKBP12IM, 100 nM 36 hours) is listed as “complete loss of C20-MaRap-induced stabilization”. Also, at GSK-3βFRB* (heterozygous MEFs, 100 nM), the “time of half maximal stabilization” value was 8 to 12 h and the “time to complete stabilization” value was “approximately 24 hours”. Besides, the EC50 at KLF was 7.8 nM. Also, at FRB*Pax6 (48 hours from e9.5 to e11.5), the “Lim3 phenotype of caudal hindbrain” value is given as “could be rescued” and the “hypoglossal nerve, whole mount neurofilament staining” value is “fasciculated hypoglossal nerve erupts”. In addition, the “expression of FRB*Pax6 protein in the spinal cord” value at FRB*Pax6 (Pax6FRB*/FRB* embryos, data not shown) was “rescued”. Besides, the “En1 expressing cells in the V1 domain of spinal cord” value at FRB*Pax6 (e8.5 embryos cultured 48 hours, 2 μM) is listed as “rescued the development of En1 expressing cells”. Besides, the “cells expressing Lim3 in spinal cord” value on FRB*Pax6 (e9.5 to e11.5, 2 μM) is given as “expansion of cells expressing Lim3”. Moreover, the “effect on wild-type embryos” value at FRB*Pax6 (embryo cultures) is given as “no obvious effect”.
